Assay results: US20240293559A1, “SHP2 inhibitor, pharmaceutical composition containing the same and application thereof” (BEIJING TIDE PHARMACEUTICAL CO., LTD., priority 2021, published 2024)

Target: T1, SHP2 (Homo sapiens, UniProt Q06124)
T1 construct: endogenous in cells; host or cells: MV 411
T1 sequence (Q06124 1-593): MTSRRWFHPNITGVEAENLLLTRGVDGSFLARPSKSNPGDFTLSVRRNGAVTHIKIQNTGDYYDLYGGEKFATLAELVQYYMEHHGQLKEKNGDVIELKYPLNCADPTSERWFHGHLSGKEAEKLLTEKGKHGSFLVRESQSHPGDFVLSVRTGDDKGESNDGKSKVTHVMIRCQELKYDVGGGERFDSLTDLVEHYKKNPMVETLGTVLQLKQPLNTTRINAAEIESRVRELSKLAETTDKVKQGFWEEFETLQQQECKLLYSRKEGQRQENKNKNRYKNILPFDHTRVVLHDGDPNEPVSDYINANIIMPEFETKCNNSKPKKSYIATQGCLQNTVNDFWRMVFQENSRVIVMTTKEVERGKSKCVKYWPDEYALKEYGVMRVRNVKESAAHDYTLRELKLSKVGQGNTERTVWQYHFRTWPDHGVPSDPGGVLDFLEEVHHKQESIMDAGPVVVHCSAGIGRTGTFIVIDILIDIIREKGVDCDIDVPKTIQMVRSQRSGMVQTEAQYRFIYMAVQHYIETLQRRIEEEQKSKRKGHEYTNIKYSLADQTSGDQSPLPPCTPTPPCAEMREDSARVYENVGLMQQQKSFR
Experiment: SHP2 degradation in MV 411 cells by Western blot (median degradation concentration)
Format: cell-based
Conditions: 24 hours with compound, SHP-2 antibody Western blot, concentration of the median degradation from exposure gray scale
Text: Reagent: complete DMEM medium, Gibco products. Fetal bovine serum, manufactured byThermoFisher. Trypsin, manufactured byThermoFisher. The SHP-2 antibody is produced by CST. Cell line, MV 411, the blast cells of patients with bi-phenotypic B-myelomonocytic leukemia, was established by Rovera. Measuring method: took the cells growing in the logarithmic phase, collected and suspended the cells in DMEM containing 10% fetal calf serum, gently blowed and beated the cells into single cell suspension by using a pipette, and counted the living cells under a microscope. […] Then cultured for 24 hours. All cells were collected and washed with PBS, lysed with RIPA lysate and collected into a 1.7 ml tube. […] metal bath for 5 minutes to fully denature the protein. 100V constant voltage electrophoresis after Western condensation and loading, stopped when bromophenol blue band reached the end point. The cellulose acetate membrane is transferred by a wet method, 45 minutes at a constant flow of 300-500 mA, 5% BSA is used for blocking for 1-2 hours at room temperature. Primary antibody of 1:500-1:8000 were used for incubation at 25° C. for 40 minutes and then washed three times. Secondary antibody was used for incubation for 15-40 min at room temperature. The proteins were detected using ultrasensitive ECL luminophores such as […], using an X-Ray film automatic developing machine. The concentration of the median degradation was calculated by exposure gray scale.

DC50 [nM] | Structure (SMILES)
50 | CCOc1cc2oc(-c3ccc(NCCOCCOCCOCCOc4cccc5c4C(=O)N(C4CCC(=O)NC4=O)C5=O)cc3Cl)cc(=O)c2cc1-c1cccc(CO)c1 (centres unmarked) [Compound 11]
920 | CCOc1cc2oc(-c3ccc(NCCOCCOCCOCCOc4cccc5c4C(=O)N(C4CCC(=O)NC4=O)C5=O)cc3Cl)cc(=O)c2cc1-c1ccc2c(c1)CCC2 (centres unmarked) [Compound 12]
50 | CCOc1cc2oc(-c3ccc(NCCOCCOCCOCCOc4cccc5c4C(=O)N(C4CCC(=O)NC4=O)C5=O)cc3Cl)cc(=O)c2cc1-c1cc(C=O)ccc1F (centres unmarked) [Compound 13]
25 | CCOc1cc2oc(-c3ccc(NCCOCCOCCOCCOc4cccc5c4C(=O)N(C4CCC(=O)NC4=O)C5=O)cc3Cl)cc(=O)c2cc1-c1cccc(C(C)=O)c1 (centres unmarked) [Compound 14]
250 | CCOc1cc2oc(-c3ccc(NCCOCCOCCOCCOc4cccc5c4C(=O)N(C4CCC(=O)NC4=O)C5=O)cc3Cl)cc(=O)c2cc1-c1ccc(OC)cc1F (centres unmarked) [Compound 15]
250 | CCOc1cc2oc(-c3ccc(NCCOCCOCCOCCOc4cccc5c4C(=O)N(C4CCC(=O)NC4=O)C5=O)cc3Cl)cc(=O)c2cc1-c1cccc(C(N)=O)c1 (centres unmarked) [Compound 16]
250 | CCOc1cc2oc(-c3ccc(NCCOCCOCCOCCOc4cccc5c4C(=O)N(C4CCC(=O)NC4=O)C5=O)cc3Cl)cc(=O)c2cc1-c1cc(F)cc(C=O)c1 (centres unmarked) [Compound 17]
> 1000 | CCOc1cc2oc(-c3ccc(NCCOCCOCCOCCOc4cccc5c4C(=O)N(C4CCC(=O)NC4=O)C5=O)cc3Cl)cc(=O)c2cc1-c1cccc(C=O)c1 (centres unmarked) [Compound 18]
3500 | CCOc1cc2oc(-c3ccc(OCCOCCOCCOCCOc4cccc5c4C(=O)N(C4CCC(=O)NC4=O)C5=O)cc3Cl)cc(=O)c2cc1-c1cccc(N)c1 (centres unmarked) [Compound 26]
2 | CCOc1cc2oc(-c3ccc(OCCOCCOCCOCCOc4cccc5c4C(=O)N(C4CCC(=O)NC4=O)C5=O)cc3Cl)cc(=O)c2cc1-c1cccc(C(=O)OC)c1F (centres unmarked) [Compound 27]
110 | CCOc1cc2oc(-c3ccc(OCCOCCOCCOCCOc4cccc5c4C(=O)N(C4CCC(=O)NC4=O)C5=O)cc3Cl)cc(=O)c2cc1-c1ccc(S(C)(=O)=O)cc1F (centres unmarked) [Compound 28]
15 | CCOc1cc2oc(-c3ccc(OCCOCCOCCOCCOc4cccc5c4C(=O)N(C4CCC(=O)NC4=O)C5=O)cc3Cl)cc(=O)c2cc1-c1cncc(C=O)c1 (centres unmarked) [Compound 29]
2000 | CCOc1cc2oc(-c3ccc(OCCOCCOCCOCCOc4cccc5c4C(=O)N(C4CCC(=O)NC4=O)C5=O)cc3Cl)cc(=O)c2cc1-c1cc(N)cc(C(=O)O)c1 (centres unmarked) [Compound 30]
300 | CCOc1cc2oc(-c3ccc(OCCOCCOCCOCCOc4cccc5c4C(=O)N(C4CCC(=O)NC4=O)C5=O)cc3Cl)cc(=O)c2cc1-c1ccc2c(c1)COC2=O (centres unmarked) [Compound 31]
850 | CCOc1cc2oc(-c3ccc(OCCOCCOCCOCCOc4cccc5c4C(=O)N(C4CCC(=O)NC4=O)C5=O)cc3Cl)cc(=O)c2cc1-c1cc(N)cc(C(N)=O)c1 (centres unmarked) [Compound 32]
3500 | CCOc1cc2oc(-c3ccc(OCCOCCOCCOCCOc4cccc5c4C(=O)N(C4CCC(=O)NC4=O)C5=O)cc3Cl)cc(=O)c2cc1-c1ccc(S(=O)(=O)N2CCOCC2)cc1F (centres unmarked) [Compound 33]
42 | CCOc1cc2oc(-c3ccc(OCCOCCOCCOCCOc4cccc5c4C(=O)N(C4CCC(=O)NC4=O)C5=O)cc3Cl)cc(=O)c2cc1-c1ccc(S(=O)(=O)N2CCOCC2)cc1 (centres unmarked) [Compound 34]
25 | CCOc1cc2oc(-c3ccc(OCCOCCOCCOCCOc4ccc5c(c4)C(=O)N(C4CCC(=O)NC4=O)C5=O)cc3Cl)cc(=O)c2cc1-c1cc(C(C)=O)cc(C(N)=O)c1 (centres unmarked) [Compound 35]
20 | CCOc1cc2oc(-c3ccc(NCCOCCOCCOCCOc4ccc5c(c4)C(=O)N(C4CCC(=O)NC4=O)C5=O)cc3Cl)cc(=O)c2cc1-c1cccc(C(C)=O)c1 (centres unmarked) [Compound 36]
750 | CCOc1cc2oc(-c3ccc(OCCOCCOCCOCCOc4cccc5c4C(=O)N(C4CCC(=O)NC4=O)C5=O)cc3Cl)cc(=O)c2cc1-c1cc(N)cc(C(=O)OC)c1 (centres unmarked) [Compound 40]
1000 | CCOC(=O)c1cncc(-c2cc3c(=O)cc(-c4ccc(OCCOCCOCCOCCOc5cccc6c5C(=O)N(C5CCC(=O)NC5=O)C6=O)cc4Cl)oc3cc2OCC)c1 (centres unmarked) [Compound 41]

DC50 [nM] | Structure (SMILES)
750 | CCOc1cc2oc(-c3ccc(OCCOCCOCCOCCOc4cccc5c4C(=O)N(C4CCC(=O)NC4=O)C5=O)cc3Cl)cc(=O)c2cc1-c1cc(C)cc(C(N)=O)c1 (centres unmarked) [Compound 42]
> 250 | CCOc1cc2oc(-c3ccc(OCCOCCOCCOCCOc4cccc5c4C(=O)N(C4CCC(=O)NC4=O)C5=O)cc3Cl)cc(=O)c2cc1-c1cc(C(N)=O)cc(C(C)(C)C)c1 (centres unmarked) [Compound 43]
750 | CCOc1cc2oc(-c3ccc(OCCOCCOCCOCCOc4cccc5c4C(=O)N(C4CCC(=O)NC4=O)C5=O)cc3Cl)cc(=O)c2cc1-c1cc(C(N)=O)cc(C(F)(F)F)c1 (centres unmarked) [Compound 44]
> 250 | CCOc1cc2oc(-c3ccc(OCCOCCOCCOCCOc4cccc5c4C(=O)N(C4CCC(=O)NC4=O)C5=O)cc3Cl)cc(=O)c2cc1-c1ccccc1C(N)=O (centres unmarked) [Compound 45]
6 | CCOc1cc2oc(-c3ccc(OCCOCCOCCOCCOc4cccc5c4C(=O)N(C4CCC(=O)NC4=O)C5=O)cc3Cl)cc(=O)c2cc1-c1cc(C(N)=O)ccc1O (centres unmarked) [Compound 46]
> 750 | CCOc1cc2oc(-c3ccc(NCCOCCOCCOCCOc4cccc5c4C(=O)N(C4CCC(=O)NC4=O)C5=O)cc3Cl)cc(=O)c2cc1CN1CCC=C(n2c(=O)[nH]c3cc(NS(=O)(=O)C4CC4)ccc32)C1 (centres unmarked) [Compound 50]
> 250 | CCOc1cc2oc(-c3ccc(NCCOCCOCCOCCOc4cccc5c4C(=O)N(C4CCC(=O)NC4=O)C5=O)cc3Cl)cc(=O)c2cc1CN1CCCC[C@@H]1C(N)=O (some centres unmarked) [Compound 51]
> 250 | CCOc1cc2oc(-c3ccc(NCCOCCOCCOCCOc4cccc5c4C(=O)N(C4CCC(=O)NC4=O)C5=O)cc3Cl)cc(=O)c2cc1COc1ccccc1C(N)=O (centres unmarked) [Compound 52]
5 | CCOc1cc2oc(-c3ccc(NCCOCCOCCOCCOc4cccc5c4C(=O)N(C4CCC(=O)NC4=O)C5=O)cc3Cl)cc(=O)c2cc1CN1CCC[C@@H]1CO (some centres unmarked) [Compound 53]
> 250 | CCOc1cc2oc(-c3ccc(OCCOCCOCCOCCOc4cccc5c4C(=O)N(C4CCC(=O)NC4=O)C5=O)cc3Cl)cc(=O)c2cc1-c1cc(C(N)=O)cc(C2CCCCC2)c1 (centres unmarked) [Compound 54]
> 1000 | CCOc1cc2oc(-c3ccc(OCCOCCOCCOCCOc4cccc5c4C(=O)N(C4CCC(=O)NC4=O)C5=O)cc3Cl)cc(=O)c2cc1-c1cc(C(N)=O)cc(-c2ccccc2)c1 (centres unmarked) [Compound 55]
> 1000 | CCOc1cc2oc(-c3ccc(OCCOCCOCCOCCOc4cccc5c4C(=O)N(C4CCC(=O)NC4=O)C5=O)cc3Cl)cc(=O)c2cc1-c1cc(C(N)=O)cc(-c2ccccn2)c1 (centres unmarked) [Compound 56]
> 1000 | CCOc1cc2oc(-c3ccc(OCCOCCOCCOCCOc4cccc5c4C(=O)N(C4CCC(=O)NC4=O)C5=O)cc3Cl)cc(=O)c2cc1-c1cc(C(N)=O)cc(-c2cccnc2)c1 (centres unmarked) [Compound 57]
500 | CCOc1cc2oc(-c3ccc(OCCOCCOCCOCCOc4cccc5c4C(=O)N(C4CCC(=O)NC4=O)C5=O)cc3Cl)cc(=O)c2cc1-c1cc(C(N)=O)cc(-c2ccncc2)c1 (centres unmarked) [Compound 58]
> 750 | CCOc1cc2oc(-c3ccc(OCCOCCOCCOCCOc4cccc5c4C(=O)N(C4CCC(=O)NC4=O)C5=O)cc3Cl)cc(=O)c2cc1-c1cc(C(N)=O)cc(-c2ncc[nH]2)c1 (centres unmarked) [Compound 59]
> 250 | CCOc1cc2oc(-c3ccc(OCCOCCOCCOCCOc4cccc5c4C(=O)N(C4CCC(=O)NC4=O)C5=O)cc3Cl)cc(=O)c2cc1-c1cc(C(N)=O)cc(-n2ccnc2)c1 (centres unmarked) [Compound 60]
> 250 | CCOc1cc2oc(-c3ccc(OCCOCCOCCOCCOc4cccc5c4C(=O)N(C4CCC(=O)NC4=O)C5=O)cc3Cl)cc(=O)c2cc1-c1cc(C(N)=O)cc(-c2c[nH]cn2)c1 (centres unmarked) [Compound 61]
> 250 | CCOc1cc2oc(-c3ccc(OCCOCCOCCOCCOc4cccc5c4C(=O)N(C4CCC(=O)NC4=O)C5=O)cc3Cl)cc(=O)c2cc1-c1cc(NC)cc(C(N)=O)c1 (centres unmarked) [Compound 62]
> 250 | CCOc1cc2oc(-c3ccc(OCCOCCOCCOCCOc4cccc5c4C(=O)N(C4CCC(=O)NC4=O)C5=O)cc3Cl)cc(=O)c2cc1-c1cc(C(N)=O)cc(N(C)C)c1 (centres unmarked) [Compound 63]
> 250 | CCOc1cc2oc(-c3ccc(OCCOCCOCCOCCOc4cccc5c4C(=O)N(C4CCC(=O)NC4=O)C5=O)cc3Cl)cc(=O)c2cc1-c1cc(NC(C)=O)cc(C(N)=O)c1 (centres unmarked) [Compound 64]
